Molecules are shown by their SMILES. Activity calls are given as the source filed them. How the calls were made is not given here.

This note sets out measurements from PubChem BioAssay AID1259411 (Chemical Carcinogenesis Research Information System (CCRIS), 2018).

The data set concerns rodent carcinogenicity bioassays, tumor incidence. Nature of the data set: CCRIS carcinogenicity studies. An outline of the steps:
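NCI-built, expert-reviewed records of carcinogenicity and related test outcomes (mutagenicity, tumor promotion/inhibition) compiled from published and report sources, historical span 1985-2011, not updated.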

Turning to `Cc1ccccc1`, the carcinogen call was “inactive; negative” (Species: MOUSE, Strain/Sex: B6C3F1/FEMALE, Route: INHALATION, Dose: 0, 120, 600, 1200 PPM 6.5 HR/D 5 D/WK FOR 103 WK (STUDY DURATION: 104 WK), Dose: 0, 120, 600, 1200 PPM 6.5 HR/D 5 D/WK FOR 103 WK (STUDY DURATION: 104 WK)); “inactive; negative” (Species: MOUSE, Strain/Sex: B6C3F1/MALE, Route: INHALATION, Dose: 0, 120, 600, 1200 PPM 6.5 HR/D 5 D/WK FOR 103 WK (STUDY DURATION: 104 WK), Dose: 0, 120, 600, 1200 PPM 6.5 HR/D 5 D/WK FOR 103 WK (STUDY DURATION: 104 WK)); “inactive; negative” (Species: RAT, Strain/Sex: F344/FEMALE, Route: INHALATION, Dose: 0, 600, 1200 PPM 6.5 HR/D 5 D/WK FOR 103 WK (STUDY DURATION: 104 WK), Dose: 0, 600, 1200 PPM 6.5 HR/D 5 D/WK FOR 103 WK (STUDY DURATION: 104 WK)); “inactive; negative” (Species: RAT, Strain/Sex: F344/MALE, Route: INHALATION, Dose: 0, 600, 1200 PPM 6.5 HR/D 5 D/WK FOR 103 WK (STUDY DURATION: 104 WK), Dose: 0, 600, 1200 PPM 6.5 HR/D 5 D/WK FOR 103 WK (STUDY DURATION: 104 WK)); “inactive; negative” (Species: RAT, Strain/Sex: STRAIN-CD/MALE, Route: INTRAGASTRIC, Dose: 0, 500 MG/KG IN OLIVE OIL 1/D 4-5 D/WK FOR 104 WK (STUDY DURATION: 104 WK)).

On to `[C-]#[Si+]`, for which the carcinogen call is “active; positive” (Species: RAT, Strain/Sex: AF/HAN, Route: INHALATION, Dose: 0, 1000 FIBERS/ML IN AIR 7 HR/D 5 D/WK FOR 1 YR (STUDY DURATION: LIFESPAN), Tumor Site: Type of Lesion: LUNG: ADENOMA, CARCINOMA) and “active; positive” (Species: RAT, Strain/Sex: F344/FEMALE, Route: INTRAPERITONEAL, Dose: 0, 20 MG SILICON CARBIDE WHISKERS ONCE (STUDY DURATION: LIFESPAN), Tumor Site: Type of Lesion: PLEURAL CAVITY: MESOTHELIOMA).

For `CCC(=O)N(O)c1ccc(-c2ccccc2)cc1`, the carcinogen call (Species: RAT, Strain/Sex: STRAIN-CD/FEMALE, Route: INTRAPERITONEAL, Dose: 0, 100 UMOL/KG BW 2/WK FOR 6 WK (STUDY DURATION: 62 WK)) was “inactive; negative”.

For the molecule `C=CC(=O)OCC(CC)CCCC` (stereo not drawn), the carcinogen call (Species: MOUSE, Strain/Sex: NMRI/MALE, Route: DERMAL, Dose: 0, 21.5, 43, 85% (W/W) IN ACETONE 3/WK FOR 2 YR (STUDY DURATION: 2 YR), Dose: 0, 21.5, 43, 85% (W/W) IN ACETONE 3/WK FOR 2 YR (STUDY DURATION: 2 YR)) was “inactive; negative”.

For `CC(O)c1ccccc1` (stereo not drawn), the carcinogen call (Species: MOUSE, Strain/Sex: B6C3F1/FEMALE, Route: GAVAGE, Dose: 0, 375, 750 MG/KG IN CORN OIL 5 D/WK FOR 103 WK (STUDY DURATION: 104 WK), Dose: 0, 375, 750 MG/KG IN CORN OIL 5 D/WK FOR 103 WK (STUDY DURATION: 104 WK)) is “inactive; negative”; the carcinogen call (Species: MOUSE, Strain/Sex: B6C3F1/MALE, Route: GAVAGE, Dose: 0, 375, 750 MG/KG IN CORN OIL 5 D/WK FOR 103 WK (STUDY DURATION: 104 WK), Dose: 0, 375, 750 MG/KG IN CORN OIL 5 D/WK FOR 103 WK (STUDY DURATION: 104 WK)) was “inactive; negative”; the carcinogen call (Species: RAT, Strain/Sex: F344/FEMALE, Route: GAVAGE, Dose: 0, 375, 750 MG/KG IN CORN OIL 5 D/WK FOR 103 WK (STUDY DURATION: 105 WK), Dose: 0, 375, 750 MG/KG IN CORN OIL 5 D/WK FOR 103 WK (STUDY DURATION: 105 WK)) was “inactive; negative”; the carcinogen call (Species: RAT, Strain/Sex: F344/MALE, Route: GAVAGE, Dose: 0, 375, 750 MG/KG IN CORN OIL 5 D/WK FOR 103 WK (STUDY DURATION: 105 WK), Dose: 0, 375, 750 MG/KG IN CORN OIL 5 D/WK FOR 103 WK (STUDY DURATION: 105 WK), Tumor Site: Type of Lesion: KIDNEY: TUBULAR CELL ADENOMA, TUBULAR CELL ADENOMA OR ADENOCARCINOMA) is “active; positive”.

With `O=C(O)[C@H]1O[C@@H](Nc2ccc3c(c2)Cc2ccccc2-3)[C@H](O)[C@@H](O)[C@@H]1O`, the carcinogen call (Species: RAT, Strain/Sex: F344/MALE, Route: INJECTION, Dose: 0;1 UMOL IN 0.5 ML OF SOLUTION CONTAINING 0.4 ML PHOSPHATE BUFFERED SALINE/ GENTAMYCIN (PH 7) AND 0.1 ML DMSO INJECTED I) is “inactive; negative”.

For the molecule `O=P(OCCCl)(OCCCl)OCCCl`, the carcinogen call (Species: MOUSE, Strain/Sex: B6C3F1/FEMALE, Route: GAVAGE, Dose: 0, 175, 350 MG/KG IN CORN OIL 5 D/WK FOR 103 (STUDY DURATION: 104 WK), Dose: 0, 175, 350 MG/KG IN CORN OIL 5 D/WK FOR 103 (STUDY DURATION: 104 WK), Tumor Site: Type of Lesion: HARDERIAN GLAND: ADENOMA OR CARCINOMA) is “equivocal”; the carcinogen call (Species: MOUSE, Strain/Sex: B6C3F1/MALE, Route: GAVAGE, Dose: 0, 175, 350 MG/KG IN CORN OIL 5 D/WK FOR 103 (STUDY DURATION: 104 WK), Dose: 0, 175, 350 MG/KG IN CORN OIL 5 D/WK FOR 103 (STUDY DURATION: 104 WK), Tumor Site: Type of Lesion: KIDNEY (RENAL TUBULE): ADENOMA, CARCINOMA) was “equivocal”; the carcinogen call (Species: MOUSE, Strain/Sex: DDY/FEMALE, Route: ORAL, Dose: 0, 0.012, 0.06, 0.3, 1.5% IN DIET FOR 18 MO (STUDY DURATION: 18 MO), Dose: 0, 0.012, 0.06, 0.3, 1.5% IN DIET FOR 18 MO (STUDY DURATION: 18 MO), Tumor Site: Type of Lesion: HEMATOPOIETIC SYSTEM: LEUKEMIA, FORESTOMACH: PAPILLOMA, CARCINOMA) is “active; positive”; the carcinogen call (Species: MOUSE, Strain/Sex: DDY/MALE, Route: ORAL, Dose: 0, 0.012, 0.06, 0.3, 1.5% IN DIET FOR 18 MO (STUDY DURATION: 18 MO), Dose: 0, 0.012, 0.06, 0.3, 1.5% IN DIET FOR 18 MO (STUDY DURATION: 18 MO), Tumor Site: Type of Lesion: LIVER: HEPATOCELLULAR ADENOMA, HEPATOCELLULAR CARCINOMA, KIDNEY: RENAL CELL ADENOMA, RENAL CELL CARCINOMA) was “active; positive”; the carcinogen call (Species: MOUSE, Strain/Sex: SLC:DDY/FEMALE, Route: DERMAL, Dose: 0, 5, 50% IN ETHANOL 2/WK FOR 79 WK (STUDY DURATION: 18 MO), Dose: 0, 5, 50% IN ETHANOL 2/WK FOR 79 WK (STUDY DURATION: 18 MO)) was “inactive; negative”; the carcinogen call (Species: RAT, Strain/Sex: F344/FEMALE, Route: GAVAGE, Dose: 0, 44, 88 MG/KG IN CORN OIL 5 D/WK FOR 103 (STUDY DURATION: 104 WK), Dose: 0, 44, 88 MG/KG IN CORN OIL 5 D/WK FOR 103 (STUDY DURATION: 104 WK), Tumor Site: Type of Lesion: KIDNEY (RENAL TUBULE): ADENOMA) is “active; positive”. Moreover, the carcinogen call (Species: RAT, Strain/Sex: F344/MALE, Route: GAVAGE, Dose: 0, 44, 88 MG/KG IN CORN OIL 5 D/WK FOR 103 (STUDY DURATION: 104 WK), Dose: 0, 44, 88 MG/KG IN CORN OIL 5 D/WK FOR 103 (STUDY DURATION: 104 WK), Tumor Site: Type of Lesion: KIDNEY (RENAL TUBULE): ADENOMA OR CARCINOMA, HEMATOPOIETIC SYSTEM: LEUKEMIA (MONONUCLEAR)) was “active; positive”.

In the case of `C[C@@H]1O[C@@H]1Cl`, the carcinogen call (Species: MOUSE, Strain/Sex: ICR/FEMALE, Route: DERMAL, Dose: 10 MG IN 0.1 ML ACETONE 3/WK FOR LIFE, Tumor Site: Type of Lesion: INTEGUMENTARY SYSTEM (SKIN): PAPILLOMA, SQUAMOUS CELL CARCINOMA) was “active; positive”.

Take `Brc1cc(Br)c2cccnc2c1`: the carcinogen call (Species: RAT, Strain/Sex: F344/FEMALE, Route: ORAL, Dose: 0.1% IN DIET FOR 2 YR) was “inactive; negative”.
